In brackets after ≈: the same amount, converted by molar mass. Like-named read-outs stand apart in the source and are kept apart here.
Tests used:
[1] = tested on: Staphylococcus aureus (ATCC 12598); experiment: Antibacterial MIC, broth dilution method; type: cell-based; settings: mean from three parallel experiments; for MIC: Staphylococcus aureus, ATCC12598, 24 h, read-out: minimum inhibitory concentration (MIC) against Staphylococcus aureus
Procedure: (§1) The bioactivity test screened the following four human pathogenic microorganisms: Pseudomonas aeruginosa (ATCC 9027); Salmonella typhimurium (ATCC 6539); Escherichia coli (ATCC 25922); and Staphylococcus aureus (ATCC 12598). The minimum inhibitory concentration was determined using the broth dilution method, with a minor modification. Bacteria were removed from the refrigerator and cultured dynamically at a constant temperature in a Mueller–Hinton Broth at room temperature for 24 h. The bacterial liquid was diluted with broth to 0.5 McFarland turbidity. The sample was prepared into an initial solution of 1 mg/mL with dimethyl sulfoxide (DMSO), and the concentrations of the 1st to 12th wells of the 96-well plate sample group were made by the double dilution method (mg/mL): 1, 0.5, 0.25, 0.125, and 0.0625. Each plate also contained a positive control (ciprofloxacin or carbendazim), as well as a sterile control and growth control (containing broth and bacterial liquid, no compound). The plates were incubated at 35 °C for 24 h. The use of 10 μL of a solution with a concentration of 11 mg/mL of Esazurin added to each well of a 96-well plate, followed by incubation at 37 °C for 3 h, allowed for the observation of color changes to determine the minimum inhibitory concentration (MIC) values.

[2] = tested on: Pseudomonas aeruginosa (ATCC 9027); experiment: Antibacterial MIC, broth dilution method; type: cell-based; settings: mean from three parallel experiments; for MIC: Pseudomonas aeruginosa, ATCC9027, 24 h, read-out: minimum inhibitory concentration (MIC) against Pseudomonas aeruginosa
Procedure: as §1

[3] = tested on: Salmonella typhimurium (ATCC 6539); experiment: Antibacterial MIC, broth dilution method; type: cell-based; settings: 24 h, mean from three parallel experiments; for MIC: Salmonella enterica, read-out: minimum inhibitory concentration (MIC) against Salmonella typhimurium
Procedure: as §1

[4] = tested on: Escherichia coli (ATCC 25922); experiment: Antibacterial MIC, broth dilution method; type: cell-based; settings: mean from three parallel experiments; for MIC: Escherichia coli, ATCC25922, 24 h, read-out: minimum inhibitory concentration (MIC) against Escherichia coli
Procedure: as §1

RAW 264.7 cells = experiment: MTT cell viability (cytotoxicity); type: cell-based; settings: RAW 264.7 cells
Procedure: (§2) The MTT method was utilized to assess cell viability. RAW 264.7 cells, at a concentration of 5 × 10^5 cells/mL, were plated in 96-well plates and exposed to lipopolysaccharide (LPS, at 1 μg/mL) in the presence or absence of the test compounds for a duration of 24 h. Following this, 100 μL of a 2 mg/mL MTT solution was introduced into each well, and after a 4 h incubation, the resulting formazan precipitates were dissolved in 100 μL of DMSO. The optical density was then determined at 490 nm using a microplate reader (Multiskan GO, Thermo Scientific, Waltham, MA, USA). The results were presented as the average percentage of cell viability relative to the untreated control group.

DPPH scavenging assay = settings: 30 min at 37 °C in the dark, read-out: Radical Scavenging Activity (IC50)
Procedure: The assay for scavenging 1,1-Diphenyl-2-picrylhydrazyl radical 2,2-Diphenyl-1-(2,4,6-trinitrophenyl)hydrazyl (DPPH free radicals) was conducted following a previously established modified protocol. The DPPH was dissolved in ethanol to prepare a 0.5 mmol/L DPPH ethanolic solution (10 mL), which was stored away from light. Subsequently, 100 μL of the DPPH solution was added to each well of a 96-well plate. The sample was prepared into an initial solution of 200 μM with ethanol, and the concentrations of the 1st to 12th wells of the 96-well plate sample group were made by the double dilution method (μM): 200,100, 50, 25, and 12.5 μM. The reaction was monitored by measuring the absorbance at 490 nm using a microplate reader (iMark, Bio-Rad, Hercules, CA, USA) after shaking the reaction for 30 min at 37 °C in the dark. The DPPH radical scavenging activity was determined by a comparison of the absorbance of the samples and a blank control. Vitamin C was used as a positive control at the same concentration as the other samples.

Fusarium oxysporum = experiment: Antifungal MIC, broth dilution method; type: cell-based; settings: 72 h, means from three parallel experiments; for MIC: Fusarium oxysporum, read-out: minimum inhibitory concentration (MIC) against Fusarium oxysporum
Procedure: (§3) The bioactivity test screened the following four phytopathogenic microorganisms: Fusarium oxysporum; Penicillium italicum; Banana Colletotrichum gloeosporioides; and Colletrichum litchi Trag. The minimum inhibitory concentration (MIC) was determined using the broth dilution method, with a minor modification. Fungi were removed from the refrigerator and cultured dynamically at a constant temperature in Potato Dextrose Broth at room temperature for 72 h. The fungal liquid was diluted with broth to 0.5 McFarland turbidity. The sample was prepared into an initial solution of 1 mg/mL with dimethyl sulfoxide (DMSO), and the concentrations of the 1st to 12th wells of the 96-well plate sample group were made by the double dilution method (mg/mL): 1, 0.5, 0.25, 0.125, and 0.0625. Each plate also contained a positive control (ciprofloxacin or carbendazim), as well as a sterile control and growth control (containing broth and fungal liquid, no compound). The plates were incubated at 35 °C for 72 h. The use of 10 μL of a solution with a concentration of 11 mg/mL of Esazurin added to each well of a 96-well plate, followed by incubation at 37 °C for 3 h, allowed for the observation of color changes to determine the minimum inhibitory concentration (MIC) values.

[5] = tested on: Banana Colletotrichum gloeosporioides; experiment: Antifungal MIC, broth dilution method; type: cell-based; settings: 72 h, means from three parallel experiments; for MIC: Colletotrichum gloeosporioides, read-out: minimum inhibitory concentration (MIC) against Banana Colletotrichum gloeosporioides
Procedure: as §3

Penicillium italicum = experiment: Antifungal MIC, broth dilution method; type: cell-based; settings: 72 h, means from three parallel experiments; for MIC: Penicillium italicum, read-out: minimum inhibitory concentration (MIC) against Penicillium italicum
Procedure: as §3

Colletrichum litchi Tra = experiment: Antifungal MIC, broth dilution method; type: cell-based, Colletrichum litchi Trag; settings: 72 h, means from three parallel experiments; for MIC: read-out: minimum inhibitory concentration (MIC) against Colletrichum litchi Tra
Procedure: as §3

[6] = MTT cell viability (cytotoxicity); type: cell-based; settings: mouse; for IC50 at 24 h: MTT assay, read-out: cytotoxic effects on RAW 264.7 cells (IC50)
Procedure: as §2

[7] = tested on: NO production in LPS-stimulated RAW 264.7 cells; experiment: Inhibition of LPS-stimulated NO production, Griess assay; type: cell-based; settings: LPS (1 μg/mL)-stimulated RAW 264.7 cells
Procedure: Compounds 1–2 were evaluated for their inhibitory effects on LPS-stimulated NO production in RAW 264.7 cells using the Griess assay. The cell line RAW 264.7, obtained from the Cell Bank of the Chinese Academy of Sciences (CBCAS) in Shanghai, China, was propagated in Dulbecco’s Modified Eagle Medium (DMEM) supplemented with 10% Fetal Bovine Serum (FBS). In the logarithmic growth phase, the cells were digested with trypsin and inoculated into 96-well plates (1 × 10^5/well). After being cultured at 37 °C with 5% CO2 for 12 h, the cells were treated with DMEM containing different concentrations of compounds (0, 3.125, 6.25, 12.5, 25, 50, and 100 μM). Two hours later, the cells were treated with LPS at a concentration of […] (1 μg/mL) and incubated under standard cell culture conditions for a period of 24 h. Fifty microliters of cell supernatant was mixed with an equal volume of Griess reagent (1% anhydrous p-aminobenzene sulfonic acid and 0.1% N-1-naphthalene ethylenediamine hydrochloride in 5% concentrated phosphoric acid). Absorbance was measured with a microplate reader at 540 nm. The IC50 values were calculated using the SPSS 25.0 statistical software analysis package based on the inhibition rate of each group.

[8] = RAW 264.7 cells, MTT, evaluated with cell viability at 50 μM, read-out: Cytotoxicity (CC50)

Compound	IC50 (DPPH scavenging assay) [µM]	MIC (Fusarium oxysporum) [µg/mL]	MIC [5] [µg/mL]	MIC (Penicillium italicum) [µg/mL]	MIC (Colletrichum litchi Tra) [µg/mL]	MIC [1] [µg/mL]	MIC [2] [µg/mL]	MIC [3] [µg/mL]	MIC [4] [µg/mL]	IC50 at 24 h ([6]; RAW 264.7 cells) [µM]	CC50 at 24 h [6, 8] [µM]	IC50 ([7]; Mus musculus, RAW264.7, 24 h) [µM]	also measured
3-hydroxy-4-(3-hydroxyphenyl)quinolin-2(1H)-one [Compound 3]	> 200												minimum inhibitory concentration (MIC) against Staphylococcus aureus ([1]; 24 h): >1000 µg/mL; minimum inhibitory concentration (MIC) against Pseudomonas aeruginosa ([2]; 24 h): 125 µg/mL; minimum inhibitory concentration (MIC) against Salmonella typhimurium [3]: 1000 µg/mL; minimum inhibitory concentration (MIC) against Escherichia coli ([4]; 24 h): 1000 µg/mL; IC50 (RAW 264.7 cells; MTT assay, read-out: cytotoxic effects on RAW 264.7 cells (IC50)): < 50 µM; CC50 (RAW 264.7 cells; MTT, evaluated with cell viability at 50 μM): < 50 µM; minimum inhibitory concentration (MIC) against Fusarium oxysporum (Fusarium oxysporum): 250 µg/mL; minimum inhibitory concentration (MIC) against Banana Colletotrichum gloeosporioides [5]: >1000 µg/mL; minimum inhibitory concentration (MIC) against Penicillium italicum (Penicillium italicum): 500 µg/mL; minimum inhibitory concentration (MIC) against Colletrichum litchi Tra (Colletrichum litchi Tra): 1000 µg/mL
COC(=O)Nc1nc2ccccc2[nH]1 [Carbendazim, reference compound]		< 30	< 30	< 30	< 30								
O=C(O)c1cn(C2CC2)c2cc(N3CCNCC3)c(F)cc2c1=O [Ciprofloxacin, reference compound]						< 30	< 30	< 30	< 30				
CC1OC(=O)C(C2CCNC3=C2C(=O)OC3C)=C1O (stereo not shown) [Compound 1, penifuranone A]	180	250 (≈ 942 µM)	> 1000	250 (≈ 942 µM)	1000 (≈ 3770 µM)	> 1000	500 (≈ 1880 µM)	1000 (≈ 3770 µM)	1000 (≈ 3770 µM)	> 50	> 50	42.2	IC50 ([7]; 24 h): 42.2 ± 2.26 µM; melting point: 156.7 to 158.2 °C
CCCCCCCCCCCCCCCC(=O)OC1=C([C@@H]2CCN(C(=O)CCCCCCCCCCCCCCC)C3=C2C(=O)O[C@@H]3C)C(=O)O[C@@H]1C [Compound 1a]	> 200	250 (≈ 337 µM)	> 1000	125 (≈ 168 µM)	1000 (≈ 1350 µM)	> 1000	125 (≈ 168 µM)	1000 (≈ 1350 µM)	> 1000	< 50	< 50		melting point: 76.6 to 77.2 °C
C[C@H]1OC(=O)C(CC2=C(O)[C@@H](C)OC2=O)=C1O [Compound 2, (+) - (5R, 5′R) - 3,3′-methylenebistetronic acid]	120	250 (≈ 1040 µM)	> 1000	250 (≈ 1040 µM)	500 (≈ 2080 µM)	> 1000	500 (≈ 2080 µM)	1000 (≈ 4160 µM)	1000 (≈ 4160 µM)	> 50	> 50	37 ± 0.88	
O=c1[nH]c2ccccc2c(-c2ccccc2)c1O [Compound 4, 3-hydroxy-4-phenylquinolin-2(1H)-one]	> 200	250 (≈ 1050 µM)	> 1000	250 (≈ 1050 µM)	1000 (≈ 4210 µM)	1000 (≈ 4210 µM)	500 (≈ 2110 µM)	1000 (≈ 4210 µM)	> 1000	< 50	< 50		
C[C@@H]1C[C@H]2[C@@H]3CCC4=CC(=O)C=C[C@]4(C)[C@@]3(F)[C@@H](O)C[C@]2(C)[C@@]1(O)C(=O)CO [Dexamethasone, reference compound]											> 50	58.2 ± 1.74	
COc1ccc2c(c1)c(CC(=O)O)c(C)n2C(=O)c1ccc(Cl)cc1 [Indomethacin, reference compound]												35.8 ± 5.7	CC50 at 24 h [6]: > 50 µM
O=C1O[C@H]([C@@H](O)CO)C(O)=C1O [Vitamin C, reference compound]	68.4												

— PMC11084256, “Penifuranone A: A Novel Alkaloid from the Mangrove Endophytic Fungus Penicillium crustosum SCNU-F0006” (International Journal of Molecular Sciences, 2024)
